{"source": "the NIST ThermoML archive (doi:10.1021/je3002305)", "note": "Numbers after ± are expanded uncertainties."}
{"assay": "refractive index (Na D-line) (dimensionless)", "settings": "293.1 K; 101.33 kPa; Liquid; Standard Abbe refractometry"}
{"smiles": "CCCCc1ccccc1", "note": "[butylbenzene]", "refractive index": "1.4894 ± 0.0008"}
{"smiles": "CCCCCCn1cc[n+](C)c1.F[P-](F)(F)(F)(F)F", "note": "[1-hexyl-3-methylimidazolium hexafluorophosphate]", "refractive index": "1.4176 ± 0.0008"}
{"smiles": "CCCCn1cc[n+](C)c1.F[P-](F)(F)(F)(F)F", "note": "[1-butyl-3-methylimidazolium hexafluorophosphate]", "refractive index": "1.4101 ± 0.0008"}
{"smiles": "CCCCCCCC[n+]1ccn(C)c1.F[P-](F)(F)(F)(F)F", "note": "[1-octyl-3-methylimidazolium hexafluorophosphate]", "refractive index": "1.4231 ± 0.0008"}
{"smiles": "CCCCCCCCCCCC", "note": "[dodecane]", "refractive index": "1.4221 ± 0.0008"}
